Data: patent US20260008775A1, “AZOLE MODULATORS OF CHOLESTEROL BIOSYNTHESIS AND THEIR USE FOR PROMOTING REMYELINATION” (GENENTECH, INC., priority 2022, published 2026)

Assays:
[1] = tested on: EpiSC-derived OPCs; experiment: In vitro phenotypic screening of OPCs, MBP high-content imaging (percentage of oligodendrocytes); format: cell-based, mouse; conditions: for EC50: Mus musculus, 72 h, 3 days, MBP stain, dose-response 0.5 nM to 1000 nM, read-out: OPC EC50
Outline: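 EC50 was fitted by Hill equation to the MBP-positive oligodendrocyte percentage from imaging of fixed, MBP- and DAPI-stained cells. Treatment lasted 3 days at 37 °C, final doses 0.5–1000 nM over 8 points, in growth factor-free N2B27. Cells were EpiSC-derived OPCs, tested in at least two independent platings.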

[2] = tested on: zymostenol accumulation (EBP) in EpiSC-derived OPCs; experiment: GC/MS-based sterol profiling, zymostenol accumulation in EpiSC-derived OPCs; format: cell-based, mouse; conditions: for EC50: Mus musculus, 24 h, EpiSC-derived OPCs, 24 hr, 8 doses from 0.15 nM to 333 nM, read-out: Mouse Zymostenol GCMS EC50
Outline: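 Zymostenol level is expressed relative to that after 24 h with 100 nM positive-control reference, measured by full-scan GC/MS (m/z 458) with cholesterol-d7 internal standard after BSTFA derivatisation. Cells were EpiSC-derived OPCs, 100,000/well in N2B27 without growth factors, treated 24 h, from two or more independent platings.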

[3] = biological target: human emopamil binding protein and human 7-dehydrocholesterol reductase (hEBP-DHCR7) (Homo sapiens (Human), UniProt Q15125); experiment: hEBP-DHCR7 radioligand binding assay (filter binding, membranes of co-expressing HEK293 cells); conditions: for Ki: competition with [3H] radioligand, 8 doses 0.06 to 5000 nM, Ki calculated from IC50
Outline: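 Compound, either single dose 1 μM or eight 5-fold dilutions from 0.06 to 5000 nM, competed with a [3H]-labelled ligand added at 25 nM for binding to co-expressing HEK293 membranes. IC50 came from nonlinear regression, with full block and DMSO as controls, then Cheng–Prusoff conversion to Ki.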

Chain of human emopamil binding protein and human 7-dehydrocholesterol reductase (hEBP-DHCR7) (Q15125 whole entry): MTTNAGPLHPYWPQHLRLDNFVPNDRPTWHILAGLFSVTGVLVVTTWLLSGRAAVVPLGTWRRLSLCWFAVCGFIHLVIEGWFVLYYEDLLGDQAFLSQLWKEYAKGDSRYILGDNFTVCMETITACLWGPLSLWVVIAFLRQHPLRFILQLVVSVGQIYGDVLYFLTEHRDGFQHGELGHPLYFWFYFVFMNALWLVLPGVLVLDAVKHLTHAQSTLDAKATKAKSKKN

| SMILES | EC50 [1] [nM] | EC50 [2] [nM] | Ki [3] [nM] | fold decrease in EBP inhibition ([3]; as compared to compound 202 (no amine group on Ring B)) [fold] | fold decrease in activity in the OPC assay ([1]; as compared to compound 202) [fold] | fold decrease in activity in the mouse zymostenol assay ([2]; as compared to compound 202) [fold] |
| --- | --- | --- | --- | --- | --- | --- |
| CC(C)n1nc(-c2cncc(C(F)(F)F)c2)cc1[C@H]1[C@@H]2C[C@H](N3CCO[C@H](C)C3)C[C@@H]21 (single isomer, unassigned) [42*] | 43.9 | 9 | 23.6 |  |  |  |
| CC(C)n1nc(-c2ccnc(C(F)(F)F)n2)cc1[C@H]1[C@@H]2C[C@@H](N3CCOCC3)C[C@@H]21 [Compound 98, 4-((1R,3s,5S,6r)-6-(1-Isopropyl-3-(2-(trifluoromethyl)pyrimidin-4-yl)-1H-pyrazol-5-yl)bicyclo[3.1.0]hexan-3-yl)morpholine] | 30.8 | 4.86 | 11.7 |  |  |  |
| CC(C)n1nc(-c2cncc(C(F)(F)F)c2)cc1[C@H]1[C@@H]2C[C@@H](N3CCOC(C)(C)C3)C[C@@H]21 [Compound 33, 4-((1R,3s,5S,6r)-6-(1-Isopropyl-3-(5-(trifluoromethyl)pyridin-3-yl)-1H-pyrazol-5-yl)bicyclo[3.1.0]hexan-3-yl)-2,2-dimethylmorpholine] | 30.5 | 5.33 | 19.4 |  |  |  |
| CC(C)n1nc(-c2cncc(C(F)(F)F)c2)nc1[C@H]1[C@@H]2C[C@@H](N3CCCOCC3)C[C@@H]21 [Compound 52, 4-((1R,3s,5S,6r)-6-(1-Isopropyl-3-(5-(trifluoromethyl)pyridin-3-yl)-1H-1,2,4-triazol-5-yl)bicyclo[3.1.0]hexan-3-yl)-1,4-oxazepane] | 6.29 | 3.1 | 18.1 |  |  |  |
| CC(C)n1nc(-c2cncc(C(F)(F)F)c2)cc1[C@H]1CC[C@H](N2CCCOCC2)C1 (single isomer, unassigned) [63*] | 21.8 | 3.49 | 14.4 |  |  |  |
| CC(C)n1nc(-c2cnc(C(F)(F)F)nc2)cc1[C@H]1[C@@H]2C[C@H](N3CCOC[C@H]3C)C[C@@H]21 [Compound 97, (R)-4-((1R,3r,5S,6R)-6-(1-Isopropyl-3-(2-(trifluoromethyl)pyrimidin-5-yl)-1H-pyrazol-5-yl)bicyclo[3.1.0]hexan-3-yl)-3-methylmorpholine] | 11.4 | 3.87 | 15.1 |  |  |  |
| CC(C)n1nc(-c2cncc(C(F)(F)F)c2)cc1[C@H]1[C@@H]2C[C@H](N3CCO[C@@H](C)C3)C[C@@H]21 (single isomer, unassigned) [41*] | 7.75 | 2.86 | 22.6 |  |  |  |
| CC(C)n1nc(-c2ccc(C(F)(F)F)c(F)c2)nc1[C@H]1CC[C@H](N2CCOCC2)C1 (single isomer, unassigned) [Compound 112*] | 196 | 23.8 | 90.8 |  |  |  |
| CC(C)n1nc(-c2ccnc(C(F)(F)F)n2)cc1[C@H]1[C@@H]2C[C@H](N3CCOC[C@H]3C)C[C@@H]21 [Compound 103, (R)-4-((1R,3r,5S,6S)-6-(1-Isopropyl-3-(2-(trifluoromethyl)pyrimidin-4-yl)-1H-pyrazol-5-yl)bicyclo[3.1.0]hexan-3-yl)-3-methylmorpholine] | 93.4 | 9.34 | 36.1 |  |  |  |
| CC(C)n1nc(-c2ccc(C(F)(F)F)c(F)c2)nc1[C@@H]1CC[C@H](N2CCOCC2)C1 (single isomer, unassigned) [Compound 113*] | 4.81 | 1.85 | 9.73 |  |  |  |
| CC(C)n1nc(-c2cc(C(F)(F)F)ncn2)cc1[C@H]1[C@@H]2C[C@H](N3CCOC[C@H]3C)C[C@@H]21 [Compound 106, (R)-4-((1R,3r,5S,6R)-6-(1-Isopropyl-3-(6-(trifluoromethyl)pyrimidin-4-yl)-1H-pyrazol-5-yl)bicyclo[3.1.0]hexan-3-yl)-3-methylmorpholine] | 11.4 | 3.87 | 15.1 |  |  |  |
| FC(F)(F)c1cccc(-c2nc([C@@H]3CC[C@@H](N4CCCOCC4)C3)n(C3CC3)n2)n1 (single isomer, unassigned) [11*] | 108 | 19.7 | 134 |  |  |  |
| CC(C)n1nc(-c2cncc(C(F)(F)F)c2)cc1[C@H]1CC[C@H](N2CCOCC2)CC1 [2*, 4-((1r,4r)-4-(1-isopropyl-3-(5-(trifluoromethyl)pyridin-3-yl)-1H-pyrazol-5-yl)cyclohexyl)morpholine] | 97.5 | 17 | 40.5 |  |  |  |
| CC(C)n1nc(-c2cncc(C(F)(F)F)c2)cc1[C@H]1[C@@H]2CC(N3CCCOCC3)C[C@@H]21 (single isomer, unassigned) [30*] | 90 | 14.8 | 32.5 |  |  |  |
| CC(C)n1nc(-c2cccc(C(F)(F)F)c2)nc1[C@H]1[C@@H]2C[C@H](N3CCOC[C@H]3C)C[C@@H]21 (single isomer, unassigned) [70*] | 0.65 | 6.43 | 8.76 |  |  |  |

Further lines, with some results ahead:

| EC50 [1] [nM] | EC50 [2] [nM] | Ki [3] [nM] | fold decrease in EBP inhibition ([3]; as compared to compound 202 (no amine group on Ring B)) [fold] | SMILES | fold decrease in activity in the OPC assay ([1]; as compared to compound 202) [fold] | fold decrease in activity in the mouse zymostenol assay ([2]; as compared to compound 202) [fold] |
| --- | --- | --- | --- | --- | --- | --- |
| 6.2 | 7.6 | 30.2 |  | CC(C)n1nc(-c2ccc(C(F)(F)F)nc2)nc1[C@H]1CC[C@@H](N2CCO[C@H](CF)C2)C1 (single isomer, unassigned) [Compound 169] |  |  |
| 32.7 | 1.03 | 32.7 |  | CC(C)n1nc(-c2ccc(C(F)(F)F)c(F)c2)nc1[C@H]1CC[C@@H](N2CCO[C@H](CF)C2)C1 [Compound 160, (S)-4-((1R,3S)-3-(3-(3-Fluoro-4-(trifluoromethyl)phenyl)-1-isopropyl-1H-1,2,4-triazol-5-yl)cyclopentyl)-2-(fluoromethyl)morpholine] |  |  |
| 838 | 371 | 838 |  | CC(C)n1nc(-c2cncc(C(F)(F)F)c2)nc1[C@H]1[C@@H]2C[C@@H](N3CCO[C@H](C)C3)C[C@@H]21 [Compound 162, (R)-4-((1R,3s,5S,6R)-6-(1-Isopropyl-3-(5-(trifluoromethyl)pyridin-3-yl)-1H-1,2,4-triazol-5-yl)bicyclo[3.1.0]hexan-3-yl)-2-methylmorpholine] |  |  |
| 274 | 21.2 | 17.1 |  | CC(C)n1nc(-c2cnc(C(F)(F)F)nc2)cc1[C@H]1CC[C@@H](N2CCO[C@H](CF)C2)C1 (single isomer, unassigned) [Compound 133*] |  |  |
| 3000 | 1400 | 3670 | 19.5 | CC(C)n1nc(-c2cnc(N)c(C(F)(F)F)c2)cc1[C@H]1[C@@H]2C[C@@H](N3CCOCC3)C[C@@H]21 [Compound A, reference compound] | 4.1 | 5.9 |
| 3.32 | 3.43 | 9.14 |  | CC(C)n1nc(-c2cccc(OC(F)(F)F)c2)cc1[C@H]1[C@@H]2C[C@H](N3CCCOCC3)C[C@@H]21 [Compound 189*, 4-((1R,3r,5S,6r)-6-(1-isopropyl-3-(3-(trifluoromethoxy)phenyl)-1H-pyrazol-5-yl)bicyclo[3.1.0]hexan-3-yl)-1,4-oxazepane] |  |  |
| 4.01 | 2.06 | 8.2 |  | CC(C)n1nc(-c2cccc(OC(F)F)c2)cc1[C@H]1[C@@H]2C[C@H](N3CCCOCC3)C[C@@H]21 (single isomer, unassigned) [Compound 199*] |  |  |
| 11.3 | 7.66 | 12 |  | CC(C)n1nc(-c2ccc(OC(F)(F)F)cc2)cc1[C@H]1[C@@H]2C[C@H](N3CCCOCC3)C[C@@H]21 [Compound 185*, 4-((1R,3r,5S,6r)-6-(1-Isopropyl-3-(4-(trifluoromethoxy)phenyl)-1H-pyrazol-5-yl)bicyclo[3.1.0]hexan-3-yl)-1,4-oxazepane] |  |  |
| 6 | 1.32 | 57.1 |  | CC[C@@H]1CN([C@@H]2CC[C@H](c3nc(-c4ccc(C(F)(F)F)nc4)nn3C(C)C)C2)CCO1 [Compound 127, (R)-2-Ethyl-4-((1R,3S)-3-(1-isopropyl-3-(6-(trifluoromethyl)pyridin-3-yl)-1H-1,2,4-triazol-5-yl)cyclopentyl)morpholine] |  |  |
| 555 | 65.6 | 35.8 |  | CC(C)n1nc(-c2cncc(Cl)c2)cc1[C@H]1[C@@H]2C[C@H](N3CCCOCC3)C[C@@H]21 [Compound 178*, 4-((1R,3r,5S,6r)-6-(3-(5-chloropyridin-3-yl)-1-isopropyl-1H-pyrazol-5-yl)bicyclo[3.1.0]hexan-3-yl)-1,4-oxazepane] |  |  |
| 5.33 | 2.98 | 6.87 |  | CC(C)n1nc(-c2cccc(C(F)(F)F)c2)cc1[C@H]1[C@@H]2C[C@H](N3CCOCC3)C[C@@H]21 [Compound 170, 4-((1R,3r,5S,6r)-6-(1-Isopropyl-3-(3-(trifluoromethyl)phenyl)-1H-pyrazol-5-yl)bicyclo[3.1.0]hexan-3-yl)morpholine] |  |  |
| 9.82 | 4.16 | 15.5 |  | CC(C)n1nc(-c2cncc(Cl)c2)cc1[C@H]1[C@@H]2C[C@@H](N3CCCOCC3)C[C@@H]21 [Compound 177*, 4-((1R,3s,5S,6r)-6-(3-(5-Chloropyridin-3-yl)-1-isopropyl-1H-pyrazol-5-yl)bicyclo[3.1.0]hexan-3-yl)-1,4-oxazepane] |  |  |
